# Data published in patent publication US8178506B2, “Oligomeric compounds and compositions for use in modulation of small non-coding RNAs” (Regulus Therapeutics Inc., priority 2003, dated 2012).
# In the oligonucleotide strings, read from the 5' end, every base follows the letter of its sugar. An asterisk marks phosphorothioate; unmarked linkages are phosphodiester. Other units and linkages are bracketed, terminal groups are in braces. A string of capitals states the bases alone. e = 2'-O-(2-methoxyethyl) (MOE); [5mC] = 5-methylcytosine; d = 2'-deoxy (DNA)
# Key:
# [1] = system: mir-143 miRNA; assay: Northern blot of mature mir-143 in kidney of ob/ob mice; format: in vivo, mouse; conditions: twice weekly at 25 mg/kg, saline = 100%
# Method: In addition, Northern blot analyses were performed to quantitate the expression of mature mir-143 in kidney samples of ob/ob mice treated with oligomeric compounds of the present invention. The mir-143 specific DNA oligonucleotide probe (SEQ ID NO: 319) described above was used to detect expression levels of the mir-143 miRNA in ob/ob mice treated (twice weekly at 25 mg/kg) with ISIS Numbers 327901, the uniform 2′-MOE oligomeric compound, or ISIS Number 340927, the 5-10-7 gapmer compound, both targeted to mir-143, versus saline treated animals or animals treated with ISIS 342672 (SEQ ID NO: 789), a uniform 2′-MOE scrambled negative control oligomeric compound. Expression levels were normalized against the U6 RNA and the expression levels of saline treated animals were set at 100%. […] In kidney samples from mice treated with the gapmer oligomeric compound targeting mir-143, ISIS Number 340927, a 23% reduction in in vivo expression levels of the mature mir-143 miRNA was observed.
# [2] = system: T47D cells; assay: Cell cycle assay in T47D cells; format: cell-based, human; conditions: 150 nM, 48 hours, relative to untreated control
# Method: BJ cells were routinely cultured in MEM high glucose with 2 mM L-glutamine and Earle's BSS adjusted to contain 1.5 g/L sodium bicarbonate and supplemented with 10% fetal bovine serum, 0.1 mM non-essential amino acids and 1.0 mM sodium pyruvate (all media and supplements from Invitrogen Life Technologies, Carlsbad, Calif.). B16-F10 cells were routinely cultured in DMEM high glucose (Invitrogen Life Technologies, Carlsbad, Calif.) supplemented with 10% fetal bovine serum (Invitrogen Life Technologies, Carlsbad, Calif.). T47D cells were cultured in DMEM High glucose media (Invitrogen Life Technologies, Carlsbad, Calif.) supplemented with 10% fetal bovine serum. […] Cells were plated on collagen-coated 24-well plates (Falcon-Primaria #3047, BD Biosciences, Bedford, Mass.) at approximately 50,000 cells per well and allowed to attach to wells overnight.
# In further studies, additional cell lines were treated with oligomeric compounds targeted against miRNAs to assess the effects of each oligomeric compound on cell cycling. BJ, B16, T47D, and HeLa cells were cultured and transfected as described above. […] T47Dp53 cells are T47D cells that have been transfected with and selected for maintenance of a plasmid that expresses a wildtype copy of the p53 gene (for example, pCMV-p53; Clontech, Palo Alto, Calif.), using standard laboratory procedures. BJ cells were treated with 200 nM of each oligomeric compound, and T47D, T47Dp53, HeLa, and B16 cells were treated with 150 nM of each oligomeric compound. The human foreskin fibroblast BJ cell line represents a non-cancer cell line, while HeLa, T47D, T47Dp53 cells and the mouse melanoma cell line B16-F10 represent cancerous cell lines. For comparison, oligomeric compounds ISIS 183891 (SEQ ID NO: 847) and ISIS 285717 ([…]; herein incorporated as SEQ ID NO: 857), both targeting the kinesin-like 1/Eg5 mRNA, involved in cell cycling, were used as positive controls. The random-mer ISIS 29848 was used as a negative control. Additionally, the oligomeric compounds ISIS Number 25690 ([…]; herein incorporated as SEQ ID NO: 858) and ISIS Number 25691 ([…]; herein incorporated as SEQ ID NO: 859), targeted to nucleotides 3051-3070 and 3085-3104, respectively, of the mRNA encoding the Drosha RNase III (GenBank Accession NM_013235.2, incorporated herein as SEQ ID NO: 860) were also tested. ISIS Number 25690 and ISIS Number 25691 are 5-10-52′-MOE gapmer compounds, 20 nucleotides in length, with phosphorothioate internucleoside linkages throughout the oligomeric compound. All cytidine residues are 5-methylcytidines. Transfections were performed using the methods described herein. Cells were prepared for flow cytometry 48-hours after oligonucleotide treatment. Results of these studies are shown in Table 35, where data are expressed as percentage of cells in each phase relative to the untreated control cells in that phase.
Substance,decrease in in vivo expression levels of the mature mir-143 miRNA [1],% cells in cell cycle phase G1 [2],% cells in cell cycle phase G2/M [2],% cells in cell cycle phase S [2],% cells in cell cycle phase aneuploid [2],% cells in cell cycle phase subG1 [2]
TGAGCTACAGTGCTTCATCTCA [ISIS 340927] (chemistry not given here) [5-10-7 2′-MOE gapmer PS; targets mature mir-143],23%,–,–,–,–,–
TGAGCTACAGTGCTTCATCTCA [ISIS 327901] (chemistry not given here) [uniform 2′-MOE PS; targets mir-143],~40%,–,–,–,–,–
328759 (antisense eG*eA*eG*eG*eG*dA*dT*dT*dG*dT*dA*dT*dG*dA*dA*e[5mC]*eA*eT*e[5mC]*eT) [compound 328759],–,86%,122%,87%,223%,123%
327902 (antisense eG*eG*e[5mC]*eT*eG*eT*e[5mC]*eA*eA*eT*eT*e[5mC]*eA*eT*eA*eG*eG*eT*e[5mC]*eA*eG) [compound 327902],–,75%,116%,120%,162%,102%
327905 (antisense e[5mC]*eA*eG*eA*e[5mC]*eT*e[5mC]*e[5mC]*eG*eG*eT*eG*eG*eA*eA*eT*eG*eA*eA*eG*eG*eA) [compound 327905],–,97%,103%,101%,164%,81%
